The results in this text go back to PMC3560175 (Virology Journal, 2012).

By EC50 is commonly meant the concentration at which the effect is half-maximal. As a reminder, the IC50 is the concentration that gives 50% inhibition. Low values mean inhibition by little substance, high ones a need for much substance.

For data set [1], the system named is wild type VSV-G pseudotyped HIV-1 vector. Description: microbe, parasite or virus in culture. Format: cell-based. As to conditions: Human immunodeficiency virus 1, HEK-293T; 293T cells, average ± SD of two independent experiments in duplicate; read-out: Antiviral EC50 wt.
Data set [2] deals with Y188L RT mutant VSV-G pseudotyped HIV-1 vector. The format is cell-based. As to conditions: read-out: Antiviral EC50 Y188L.
Data set [3] relates to Y181C RT mutant VSV-G pseudotyped HIV-1 vector. The format is cell-based. As to conditions: read-out: Antiviral EC50 Y181C.
The test system of data set [4] is V106A RT mutant VSV-G pseudotyped HIV-1 vector. The format is cell-based. As to conditions: read-out: Antiviral EC50 V106A.
Data set [5] concerns K103N RT mutant VSV-G pseudotyped HIV-1 vector. The format is cell-based. As to conditions: read-out: Antiviral EC50 K103N.
A short description of data set [6]: in vitro. As to conditions: human.
In data set [7] the test system is VSVg-pseudotyped HIV-1 vector (pNL4-3LucR+E-). Nature of the data set: microbe, parasite or virus in culture. Format: cell-based.
Data set [8] concerns pLai3Luc2 HIV-1 vector. Description: microbe, parasite or virus in culture. The format is cell-based.
Data set [9] relates to HIV-1 vector (NL4-3 Nef + IRES rluc). Description: microbe, parasite or virus in culture. The format is cell-based.
Data set [10] relates to early and late HIV-1 reverse transcription products. Description: Real-time PCR quantitation of early and late viral DNA in infected 293T cells. Format: cell-based. As to conditions: 5 μM added 1 hr before infection, 24 hrs post infection.
For data set [11], the target named is T1, HIV-1 reverse transcriptase (RT) (Human immunodeficiency virus type 1 group M subtype B, UniProt P03366).
T1 construct: recombinant purified HIV-1 reverse transcriptase (RT) activity; purchased Ambion, Austin, TX
Description: biochemical.

Data set [12] deals with VSVg-pseudotyped HIV-1 vector. Format: cell-based.
Data set [13] concerns PBMCs.
Description: PBMCs were activated in PBMC Growth Medium (RPMI 1640 with 15% FBS, Pen/Strep, 25 mM HEPES, 100 U/ml IL-2) supplemented with 5 μg/ml PHA-P. Two days after activation, the PBMC’s were maintained in the same medium (without PHA-P) for 3 more days. Aliquots of 2x10^4 PBMCs were then plated in 80 μl PBMC Growth Medium in each well of white 96 well plates (CoStar) and returned to the incubator overnight. […] Eight replicate samples were then set up, with 10 μl aliquots of the serially-diluted compounds added to the cells, and preincubated at 37°C for one hour prior to virus challenge. The cells were then challenged with 10 μl per well of the NL4-3 Nef+ IRES rluc virus vector bringing the total volume in each well to 100 μl final. The plates were incubated at 37°C for five days and then viral infection was monitored by adding 100 μl per well of Renilla-Glo Luciferase Reagent (Promega) and measuring the resultant luciferase activities using a Topcount-HTS (PerkinElmer). Cell toxicity was assessed on a duplicate plate of samples by adding 100 μl Cell-Titer Glo Reagent (Promega) and reading on a Topcount-HTS.

For `Cc1cn([C@H]2C[C@H](N=[N+]=[N-])[C@@H](CO)O2)c(=O)[nH]c1=O` [AZT, 3’-azido-3’-deoxythymidine], the EC50 came to 0.014 ± 0.003 µM in data set [1]; 0.011 ± 0.005 µM in data set [2]; 0.006 µM in data set [3]; 0.015 ± 0.001 µM in data set [4]; 0.014 ± 0.002 µM in data set [5]. This compound yielded a CC50 at 24 h in data set [6] greater than 50 µM.

Regarding `Clc1ccccc1-c1nc2ccccn2c1NC1CCCCC1` [F2], the “decrease of luciferase activity (library screen)” value in data set [7] was “more than 50%”. The selectivity index was 88.1 in data set [7], 29.5 in [8] and greater than 11.6 in [9]. Also, the EC50 in data set [7] (Human immunodeficiency virus 1, HEK-293T, read-out: EC50 (luciferase-based infectivity)) was 0.387 ± 0.046 µM; in data set [8] (Human immunodeficiency virus 1, CEM-GFP, 48 h) it was 0.862 ± 0.088 µM; in [9] (Human immunodeficiency virus 1, NL43, PBMC, 120 h), 0.865 ± 0.222 µM; in [1] it was 0.165 ± 0.039 µM; in [2] it was greater than 20 µM; in [3], 1.68 ± 0.271 µM. Moreover, the values for the concentration for a half-maximal effect (EC50) in [4] and in data set [5] were 1.28 ± 0.357 µM and 3.23 ± 0.127 µM, respectively. In data set [10], the “synthesis of early and late viral DNA products” value is “blocked the synthesis of both early and late viral DNA products”. Also, the IC50 in [11] amounted to 2.55 ± 0.365 µM. For the same compound, the “combination effect with AZT (isobologram)” value in data set [12] is recorded as “synergy”. Also, the “combination effect with NVP (isobologram)” value in data set [12] was “additivity”. In addition, the cell toxicity entry in [13] is reported as “absence of cell toxicity”.

As to `Cc1ccnc2c1NC(=O)c1cccnc1N2C1CC1` [NVP, nevirapine], the EC50 is 0.019 ± 0.002 µM in data set [1]; greater than 20 µM in [2]; 2.879 ± 0.006 µM in data set [3]; 1.26 ± 0.159 µM in [4]; 0.841 ± 0.049 µM in [5]. Besides, the CC50 in data set [6] is greater than 50 µM.
